Earlier results, collected in PubChem BioAssay AID1259409 (Chemical Carcinogenesis Research Information System (CCRIS), 2018).
“And” between values parts separate entries of the source, which are not always exact repeats. Equal values may be shown once.

Tested on: rodent chemically induced tumor inhibition, incidence and multiplicity
Experiment: CCRIS tumor inhibitor studies
Details: Promoter: NONE USED

Row | SMILES | tumour outcome (control, treated, inhibition, significance) (Carcinogen: N-NITROSOBIS(2-OXOPROPYL)AMINE, 60599-38-4, Dose [Inhibitor]: 0.25 MMOL/KG DIET FOR 364 D STARTING 2 WK AFTER LAST CARCINOGEN DOSE (STUDY DURATION: 55 WK), Route [Inhibitor]: ORAL, Species: HAMSTER, Strain/Sex: SYRIAN/FEMALE, Target Tissue: Type of Lesion: LIVER: CARCINOMA, Dose [Carcinogen]: 20 MG/KG INJECTION GIVEN TWICE 1 WK APART) | tumour outcome (control, treated, inhibition, significance) (Carcinogen: N-NITROSOBIS(2-OXOPROPYL)AMINE, 60599-38-4, Dose [Inhibitor]: 0.25 MMOL/KG DIET FOR 364 D STARTING 2 WK AFTER LAST CARCINOGEN DOSE (STUDY DURATION: 55 WK), Route [Inhibitor]: ORAL, Species: HAMSTER, Strain/Sex: SYRIAN/MALE, Target Tissue: Type of Lesion: LIVER: CARCINOMA, Dose [Carcinogen]: 20 MG/KG INJECTION GIVEN TWICE 1 WK APART) | tumour outcome (control, treated, inhibition, significance) (Carcinogen: N-NITROSOBIS(2-OXOPROPYL)AMINE, 60599-38-4, Dose [Inhibitor]: 0.25 MMOL/KG DIET FOR 364 D STARTING 2 WK AFTER LAST CARCINOGEN DOSE (STUDY DURATION: 55 WK), Route [Inhibitor]: ORAL, Species: HAMSTER, Strain/Sex: SYRIAN/MALE, Target Tissue: Type of Lesion: PANCREAS: CARCINOMA, Dose [Carcinogen]: 20 MG/KG INJECTION GIVEN TWICE 1 WK APART) | tumour outcome (control, treated, inhibition, significance) (Carcinogen: N-NITROSOBIS(2-OXOPROPYL)AMINE, 60599-38-4, Dose [Inhibitor]: 0.5 MMOL/KG DIET FOR 209 D STARTING 2 WK AFTER LAST CARCINOGEN DOSE FOLLOWED BY 0.25 MMOL/KG DIET FOR 117 D WITH INTERMI, Route [Inhibitor]: ORAL, Species: HAMSTER, Strain/Sex: SYRIAN/FEMALE, Target Tissue: Type of Lesion: LIVER: CARCINOMA, Dose [Carcinogen]: 20 MG/KG INJECTION GIVEN TWICE 1 WK APART) | tumour outcome (control, treated, inhibition, significance) (Carcinogen: N-NITROSOBIS(2-OXOPROPYL)AMINE, 60599-38-4, Dose [Inhibitor]: 0.5 MMOL/KG DIET FOR 209 D STARTING 2 WK AFTER LAST CARCINOGEN DOSE FOLLOWED BY 0.25 MMOL/KG DIET FOR 117 D WITH INTERMI, Route [Inhibitor]: ORAL, Species: HAMSTER, Strain/Sex: SYRIAN/FEMALE, Target Tissue: Type of Lesion: PANCREAS: CARCINOMA, Dose [Carcinogen]: 20 MG/KG INJECTION GIVEN TWICE 1 WK APART) | tumour outcome (control, treated, inhibition, significance) (Carcinogen: N-NITROSOBIS(2-OXOPROPYL)AMINE, 60599-38-4, Dose [Inhibitor]: 0.5 MMOL/KG DIET FOR 209 D STARTING 2 WK AFTER LAST CARCINOGEN DOSE FOLLOWED BY 0.25 MMOL/KG DIET FOR 117 D WITH INTERMI, Route [Inhibitor]: ORAL, Species: HAMSTER, Strain/Sex: SYRIAN/MALE, Target Tissue: Type of Lesion: LIVER: HEPATOCELLULAR CARCINOMA, Dose [Carcinogen]: 20 MG/KG INJECTION GIVEN TWICE 1 WK APART) | tumour outcome (control, treated, inhibition, significance) (Carcinogen: N-NITROSOBIS(2-OXOPROPYL)AMINE, 60599-38-4, Dose [Inhibitor]: 0.5 MMOL/KG DIET FOR 209 D STARTING 2 WK AFTER LAST CARCINOGEN DOSE FOLLOWED BY 0.25 MMOL/KG DIET FOR 117 D WITH INTERMI, Route [Inhibitor]: ORAL, Species: HAMSTER, Strain/Sex: SYRIAN/MALE, Target Tissue: Type of Lesion: PANCREAS: CARCINOMA, Dose [Carcinogen]: 20 MG/KG INJECTION GIVEN TWICE 1 WK APART) | tumour outcome (control, treated, inhibition, significance) (Carcinogen: 4-(METHYLNITROSAMINO)-1-(3-PYRIDYL)-1-BUTANONE, 64091-91-4, Dose [Inhibitor]: 0, 1 UMOL ONCE 2 HR PRIOR TO CARCINOGEN DOSE (STUDY DURATION: 16 WK), Route [Inhibitor]: GAVAGE, Species: MOUSE, Strain/Sex: STRAIN-A/FEMALE, Target Tissue: Type of Lesion: LUNG: ADENOMA, Dose [Carcinogen]: 10 UMOL IN 0.1 ML SALINE ONCE) | tumour outcome (control, treated, inhibition, significance) (Carcinogen: 4-(METHYLNITROSAMINO)-1-(3-PYRIDYL)-1-BUTANONE, 64091-91-4, Dose [Inhibitor]: 0, 5 UMOL ONCE 2 HR PRIOR TO CARCINOGEN DOSE (STUDY DURATION: 16 WK), Route [Inhibitor]: GAVAGE, Species: MOUSE, Strain/Sex: STRAIN-A/FEMALE, Target Tissue: Type of Lesion: LUNG: ADENOMA, Dose [Carcinogen]: 10 UMOL IN 0.1 ML SALINE ONCE)
1 | CC1=C(/C=C/C(C)=C/C=C/C(C)=C\C(=O)Nc2ccc(OC(=O)C(C)(C)C)cc2)C(C)(C)CCC1 | 7%, 10%, -43%, not calculated | 5%, 25%, -400%, not calculated | 34%, 14%, 59%, not calculated and 38%, 28%, 26%, not calculated | 5%, 19%, -280%, not calculated | 38%, 27%, 29%, not calculated | 7%, 19%, -171%, not calculated | 34%, 30%, 12%, not significant | – | –
2 | S=C=NCC(c1ccccc1)c1ccccc1 | – | – | – | – | – | – | – | 100%, 60%, 40%, p<0.05 | 100%, 45%, 55%, p<0.05
